These results are taken from patent publication US8784929B2 (priority 2007, dated 2014).

For experiment [1], the target named is T1, αHL-WT (Staphylococcus aureus, UniProt P09616). Type of experiment: biochemical, staphylococcal. As to conditions: pH 7.
Experiment [2] has as its target T1, αHL-WT. The following applies: cited from earlier work.

T1 sequence (P09616 27-319 limits assumed): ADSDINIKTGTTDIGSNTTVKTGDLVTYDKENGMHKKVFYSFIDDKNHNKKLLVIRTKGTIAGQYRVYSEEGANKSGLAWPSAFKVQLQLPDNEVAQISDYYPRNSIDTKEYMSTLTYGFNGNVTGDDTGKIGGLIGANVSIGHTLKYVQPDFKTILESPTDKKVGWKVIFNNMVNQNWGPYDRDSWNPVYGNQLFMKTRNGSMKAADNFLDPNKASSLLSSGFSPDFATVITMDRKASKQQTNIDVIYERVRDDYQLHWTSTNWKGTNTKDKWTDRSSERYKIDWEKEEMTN

For `COC[C@H]1O[C@@H]2O[C@H]3[C@H](OC)[C@@H](OC)[C@@H](O[C@H]4[C@H](OC)[C@@H](OC)[C@@H](O[C@H]5[C@H](OC)[C@@H](OC)[C@@H](O[C@H]6[C@H](OC)[C@@H](OC)[C@@H](O[C@H]7[C@H](OC)[C@@H](OC)[C@@H](O[C@H]8[C@H](OC)[C@@H](OC)[C@@H](O[C@H]1[C@H](OC)[C@H]2OC)O[C@@H]8COC)O[C@@H]7COC)O[C@@H]6COC)O[C@@H]5COC)O[C@@H]4COC)O[C@@H]3COC` [hβCD, heptakis(2,3,6-tri-O-methyl)-β-cyclodextrin], the “current block on binding to αHL-WT” value on αHL-WT [1] was 95%.
Consider `OC[C@H]1O[C@@H]2O[C@H]3[C@H](O)[C@@H](O)[C@@H](O[C@H]4[C@H](O)[C@@H](O)[C@@H](O[C@H]5[C@H](O)[C@@H](O)[C@@H](O[C@H]6[C@H](O)[C@@H](O)[C@@H](O[C@H]7[C@H](O)[C@@H](O)[C@@H](O[C@H]8[C@H](O)[C@@H](O)[C@@H](O[C@H]1[C@H](O)[C@H]2O)O[C@@H]8CO)O[C@@H]7CO)O[C@@H]6CO)O[C@@H]5CO)O[C@@H]4CO)O[C@@H]3CO` [β-cyclodextrin], for which, at αHL-WT [2], the “binding of β-cyclodextrin (in words)” value is “does not bind β-cyclodextrin strongly”.
On to `OC[C@H]1O[C@@H]2O[C@H]3[C@H](O)[C@@H](O)[C@@H](O[C@H]4[C@H](O)[C@@H](O)[C@@H](O[C@H]5[C@H](O)[C@@H](O)[C@@H](O[C@H]6[C@H](O)[C@@H](O)[C@@H](O[C@H]7[C@H](O)[C@@H](O)[C@@H](O[C@H]8[C@H](O)[C@@H](O)[C@@H](O[C@H]9[C@H](O)[C@@H](O)[C@@H](O[C@H]1[C@H](O)[C@H]2O)O[C@@H]9CO)O[C@@H]8CO)O[C@@H]7CO)O[C@@H]6CO)O[C@@H]5CO)O[C@@H]4CO)O[C@@H]3CO` [γCD, γ-cyclodextrin], for which the “current block on binding to αHL-WT” value at αHL-WT [1] is 68%.
